The experiment concerns the target T1, PARP-1 (Homo sapiens, UniProt P09874).
T1 construct: gene PARP1
The experiment is described as follows: PARP-1 inhibition assay kit (Cat No. […]). Type of experiment: biochemical.

pIC50: −log10 of the molar value.

For orientation: pIC50 means −log10 of the IC50, conventionally taken in molar units. A lower pIC50 goes with a high IC50.

T1 sequence (P09874 2-1014): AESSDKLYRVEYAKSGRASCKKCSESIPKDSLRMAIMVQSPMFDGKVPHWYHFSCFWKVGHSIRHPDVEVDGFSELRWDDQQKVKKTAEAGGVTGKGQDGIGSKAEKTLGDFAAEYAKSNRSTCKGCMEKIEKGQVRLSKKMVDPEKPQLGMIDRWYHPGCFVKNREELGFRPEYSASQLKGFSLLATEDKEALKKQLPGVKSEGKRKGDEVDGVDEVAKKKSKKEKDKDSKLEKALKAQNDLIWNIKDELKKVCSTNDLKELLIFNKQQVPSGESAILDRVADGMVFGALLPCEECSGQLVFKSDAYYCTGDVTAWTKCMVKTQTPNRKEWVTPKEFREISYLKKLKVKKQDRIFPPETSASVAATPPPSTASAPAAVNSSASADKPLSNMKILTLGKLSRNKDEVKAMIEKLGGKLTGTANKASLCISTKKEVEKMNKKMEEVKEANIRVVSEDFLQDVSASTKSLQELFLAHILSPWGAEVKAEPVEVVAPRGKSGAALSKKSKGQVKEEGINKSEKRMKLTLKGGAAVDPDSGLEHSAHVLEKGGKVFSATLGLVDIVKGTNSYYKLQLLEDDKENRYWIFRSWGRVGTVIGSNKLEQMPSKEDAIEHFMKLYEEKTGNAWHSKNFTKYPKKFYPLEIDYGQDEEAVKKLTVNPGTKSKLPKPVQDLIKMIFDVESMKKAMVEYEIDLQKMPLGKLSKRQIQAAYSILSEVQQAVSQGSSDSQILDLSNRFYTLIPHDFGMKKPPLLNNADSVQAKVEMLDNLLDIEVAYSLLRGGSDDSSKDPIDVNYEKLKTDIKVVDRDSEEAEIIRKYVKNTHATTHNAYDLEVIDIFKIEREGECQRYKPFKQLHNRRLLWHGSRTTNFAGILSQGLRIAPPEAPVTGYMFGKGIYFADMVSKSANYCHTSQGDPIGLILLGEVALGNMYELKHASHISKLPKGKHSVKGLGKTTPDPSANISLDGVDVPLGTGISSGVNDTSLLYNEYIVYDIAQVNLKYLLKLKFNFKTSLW

For the molecule `NNC(=O)CNC(=O)COc1cc(Cl)c(Cl)cc1Cl` [I, N-(2-hydrazineyl-2-oxoethyl)-2-(2.4.5-trichlorophenoxy) acetamide], the pIC50 is 8.82.
